# From patent US9616046B2, “Hepatocyte-proliferating agent” (JAPAN BIO PRODUCTS CO., LTD., priority 2013, dated 2017)
# System: rat normal hepatocytes
# Assay: Intracellular signaling pathway analysis using kinase inhibitors (DNA synthesis activity, BrdU ELISA)
# Assay type: cell-based
# Conditions: PARI-S001 (pyroglutamic acid 10 mM) plus inhibitor; PD98059, SB203580, LY294002 6.3-50 μM, rapamycin 1.6-12.5 ng/mL; 0.5% DMSO; 22 hours
# Description: The intracellular signaling pathway analysis was carried out in order to clarify through which intracellular signaling pathway the PARI-S001 promoted cell proliferation activity. PARI-S001 and various kinase inhibitors were used to measure the cell proliferation activity. The measurement method used was the same method as that in the above-described <Normal Cell Proliferation Test>. The rat normal hepatocytes were cultured for 3 hours after seeding, followed by replacement with the medium to which […] (pyroglutamic acid concentration: 10 mM) and each kinase inhibitor were simultaneously added. The concentration of rapamycin (an inhibitor of mTOR) was adjusted to a final concentration of 1.6 ng/mL, 3.1 ng/mL, 6.3 ng/mL, or 12.5 ng/mL. The concentration of PD98059 (an inhibitor of MEK1 and MEK2), SB203580 (an inhibitor of p38 of MAPK), and LY294002 (an inhibitor of PI3K) was adjusted to a final concentration of 6.3 μM, 12.5 μM, 25 μM, or 50 μM. To promote the dissolution of each kinase inhibitor, dimethyl sulfoxide (hereinafter abbreviated as “DMSO”) was added to a final concentration of 0.5% to the medium. Similarly, DMSO was added to a final concentration of 0.5% to the control. Culture was further carried out for 22 hours after medium replacement, followed by evaluating DNA synthesis activity using a Cell Proliferation ELISA BrdU (colorimetric) Kit (Roche Co., Ltd.).
compound,measurement,value
COc1cccc(-c2cc(=O)c3ccccc3o2)c1N [PD98059],DNA synthesis activity in rat normal hepatocytes on simultaneous addition of PARI-S001 and kinase inhibitor,suppress DNA synthesis activity in the rat normal hepatocytes depending on the concentration of the inhibitor
